The values below come from publication PMC3722118, “Hellebrin and its aglycone form hellebrigenin display similar in vitro growth inhibitory effects in cancer cells and binding profiles to the alpha subunits of the Na^+/K^+-ATPase” (Molecular Cancer, 2013).

The data set concerns U373 GBM cells. As to conditions: 10 nM. The method, then: Computer-assisted phase contrast microscopy (quantitative videomicroscopy) analyses were used to morphologically visualize the effects induced by hellebrin (data not shown) and hellebrigenin (Figure 5) in human U373 GBM cells.
Figure 5 Computer-assisted phase-contrast microscopy (quantitative videomicroscopy) illustrations of human U373 glioblastoma cells treated with 10 nM hellebrigenin for 72 h. […] Cells were not starved during the experiments. The images provided here are representative images obtained from triplicates in each experimental condition.

In the case of `C[C@]12CC[C@H]3[C@@H](CC[C@]4(O)C[C@@H](O)CC[C@]34C=O)[C@@]1(O)CC[C@@H]2c1ccc(=O)oc1` [Hellebrigenin], the “U373 GBM cells died” value (72 h of treatment) was “approximately 50%”. The “cytotoxic versus cytostatic nature (morphological analyses)” value (up to 72 h) is “cytotoxic compound and not a cytostatic one”.
